Source: publication PMC10892660 (Pharmaceutics, 2024)
Read-outs that look alike come from different tables or passages of the source.

Tests used:
[1] = cited from earlier work
[2] = cited from earlier work; remark: listed apart in the source
[3] = cited from earlier work; remark: listed apart in the source
[4] = cited from earlier work; remark: listed apart in the source
[5] = Non-clinical drug–drug interaction / oral pharmacokinetic study in Sprague–Dawley rats; type: in vivo, rat; conditions: for AUC(0-inf) / CL/F / Cmax / Tmax / half-life: male, Sprague-Dawley, plasma
Description: Male Sprague–Dawley (SD) rats, 7 weeks old (180–210 g), were purchased from Hana Biotech (Pyeongtaek, Republic of Korea). The rats were kept in a room with a relative humidity of 50–60%, a temperature of 21 ± 2 °C, and a 12 h light/dark cycle and were acclimatized to these conditions for a week. The protocol for these experiments was approved by Inje University’s Animal Care Committee (Inje 2022-012, Gimhae, Republic of Korea).
The drug was orally administered via a feeding tube, employing a total dosing volume of 5 mL/kg across all groups. Blood samples (approximately 200 μL) were collected from the jugular vein at 0.25, 0.5, 1, 2, 3, 4, 6, 8, 12, and 24 h post-dose. […] The blood samples were promptly centrifuged at 15,000 rpm for 5 min at 4 °C. The resulting plasma was stored at -70 °C until HPLC or LC-MS/MS analysis.
The calculated pharmacokinetic parameters included the following: area under the time–plasma concentration curve (AUC) between from0 to infinity (AUCinf); maximum plasma concentration (Cmax); time to reach maximum concentration (Tmax); terminal half-life (t1/2); oral clearance (CL/F). Pharmacokinetic parameters are expressed as the mean ± standard deviation (SD). For statistical analysis, a Student’s t-test was performed using GraphPad Prism software (San Diego, CA, USA) with a significance threshold of less than 0.05.
The LC-MS/MS system consisted of an Agilent 6490 triple quadrupole mass spectroscopy system and a 1290 infinity HPLC system (Agilent Technologies, Santa Clara, CA, USA). The separation of compounds was accomplished by a reversed-phase column (Synergi Polar-RP 80 Å, 150 × 2.0 mm, 4 μm, Phenomenex, Torrance, CA, USA) with a security guard. […] Multiple reaction monitoring (MRM) modes were used for the quantitative study of the compound’s precursor ion and product ion transitions. […] In addition, 1′-hydroxy midazolam was analyzed under the following conditions. The mobile phase was a mixture of 0.1% formic acid in water and ACN (50:50 v/v), with a flow rate of 0.2 mL/min. The column temperature was kept constant at 25 °C. The following ion values (m/z) were obtained by monitoring the transitions: 1′-hydroxy midazolam, 342.0 → 203.1; phenacetin (IS), 180.0 → 162.2. The data analysis was achieved using MassHunter software version A.06.00 (Agilent Technologies, Santa Clara, CA, USA).
The HPLC system included a degasser pump (L-2130), a column oven (L-2300), an autosampler (L-2200), and a diode array detector (L-2455). The analysis was carried out using the software Hitachi LaChrom D-2000 Elite (Merck-Hitachi, Tokyo, Japan). The separation was accomplished using a reversed-phase column (Synchronis C18 150 × 4.6 mm, 5 μm, Thermo Scientific, Waltham, MA, USA) with a guard column (security guard C18 4 × 2.0 mm, Phenomenex, Torrance, CA, USA). The mobile phase was comprised of phases A (ACN) and B (0.015 M potassium phosphate monobasic (KH2PO4) with 2.8 mM triethylamine in water). The mobile phase was A:B = 60:40, with a flow rate of 1.5 mL/min. The temperature of the column oven controller was maintained at 40 °C, and 50 μL of sample was injected into the system.

[6] = cited from earlier work; remark: listed apart in the source
CYP3A4 = conditions: nicardipine, cited from earlier work
CYP3A2 = target: T1, CYP3A2 (Rattus norvegicus, UniProt P05183); test: Saxagliptin metabolic stability with recombinant rat CYP3A2; type: in vitro ADME; conditions: rat, recombinant rat CYP3A2, pH 7.4; read-out: half-life after incubation with rCYP3A2 reaction mixture
T1 construct: purchased Xenotech (Lenexa, KS, USA)
T1 sequence (P05183 1-504): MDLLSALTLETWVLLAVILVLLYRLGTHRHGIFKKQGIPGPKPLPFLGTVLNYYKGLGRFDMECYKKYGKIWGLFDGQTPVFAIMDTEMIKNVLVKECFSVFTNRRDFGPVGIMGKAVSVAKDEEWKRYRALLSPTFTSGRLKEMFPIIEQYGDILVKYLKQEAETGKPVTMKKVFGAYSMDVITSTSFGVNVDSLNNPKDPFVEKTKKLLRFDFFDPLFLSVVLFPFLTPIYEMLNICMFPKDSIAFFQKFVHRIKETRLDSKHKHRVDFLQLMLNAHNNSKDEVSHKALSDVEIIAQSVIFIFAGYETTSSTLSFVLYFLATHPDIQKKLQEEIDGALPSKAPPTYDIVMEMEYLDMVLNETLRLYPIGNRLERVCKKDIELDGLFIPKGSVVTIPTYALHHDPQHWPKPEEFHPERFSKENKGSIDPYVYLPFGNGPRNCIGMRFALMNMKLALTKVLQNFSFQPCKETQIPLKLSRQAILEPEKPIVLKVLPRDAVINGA
Description: (§1) After initiating the reaction by adding NADPH solution, the sampling was carried out at 37 °C for 0, 5, 10, 20, and 30 min in triplicate and stopped with methanol containing 200 ng/mL tolbutamide as an internal standard (IS) for HPLC analysis.

[7] = target: T2, recombinant rat CYP3A2 (rCYP3A2) (Rattus norvegicus, UniProt P05183); test: as above; type: in vitro ADME; conditions: in-house data
T2 construct: purchased Xenotech (Lenexa, KS, USA)
T2 sequence (P05183 1-504): T1 sequence (P05183 1-504)
Description: as §1

[8] = saxagliptin, cited from earlier work
hCYP3A5 = test system: hCYP3A5; set-up: method as in PMID 22496391; conditions: saxagliptin, cited from earlier work
hCYP3A4 = test system: hCYP3A4; set-up: method as in PMID 22496391; conditions: saxagliptin, cited from earlier work
[9] = nicardipine, input of rat and human models
[10] = nicardipine, rat and human models
[11] = saxagliptin, rat PBPK model input
[12] = saxagliptin, human PBPK model input

COC(=O)C1=C(C)NC(C)=C(C(=O)OCCN(C)Cc2ccccc2)C1c1cccc([N+](=O)[O-])c1 (centres unmarked) [nicardipine]
AUCinf observed ([1]; nicardipine, human po 40 mg): 163 ng·h/mL | Cmax observed ([1]; nicardipine, human po 40 mg): 58.8 ng/mL | t1/2 observed ([1]; nicardipine, human po 40 mg): 2.80 h | Specific intestinal permeability, input value [2, 9]: 1.15 10^−6 cm/s | Specific intestinal permeability, reference value [2, 10]: 1.15 10^−6 cm/s | pKa (compound type), input value ([3]; nicardipine, base, input of rat and human models): 8.1 (base) | pKa (compound type), reference value ([3]; nicardipine, base, rat and human models): 8.1 (base) | Lipophilicity, input value [3, 9]: 4.6 logD7.4 | Solubility (ref-pH), input value ([3]; nicardipine, pH 7, input of rat and human models): 7.9 (pH 7) mg/mL | Solubility (ref-pH), reference value ([3]; nicardipine, pH 7, rat and human models): 7.9 (pH 7) mg/mL | Lipophilicity, reference value [3, 10]: 4.6 logD7.4 | Fraction unbound, rat, input value ([4]; nicardipine, rat PBPK model input): 0.084 | Fraction unbound, rat, reference value ([4]; nicardipine, rat plasma): 0.084 | AUC(0-inf) ([5]; rat, po, 15 mg/kg, AUCinf of nicardipine, 15 mg/kg alone, mean ± SD): 408 ± 121 ng·h/mL | CL/F ([5]; rat, po, 15 mg/kg, CL/F of nicardipine, 15 mg/kg alone, mean ± SD): 662 mL/min/kg | Cmax ([5]; rat, po, 15 mg/kg, Cmax of nicardipine, 15 mg/kg alone, mean ± SD): 132 ± 35.3 ng/mL | Tmax ([5]; rat, po, 15 mg/kg, Tmax of nicardipine, 15 mg/kg alone, mean ± SD): 0.357 ± 0.134 h | half-life ([5]; rat, po, 15 mg/kg, t1/2 of nicardipine, 15 mg/kg alone, mean ± SD): 5.76 ± 1.45 h | Fraction unbound, human, input value ([6]; nicardipine, human PBPK model input): 0.01 | Fraction unbound, human, reference value ([6]; nicardipine, human plasma): 0.01 | Ki (CYP3A4; read-out: Ki CYP3A4, input value, human PBPK model input): […] | Ki (CYP3A4; read-out: Ki CYP3A4, reference value, human): […]

N#C[C@@H]1C[C@@H]2C[C@@H]2N1C(=O)[C@@H](N)C12CC3CC(CC(O)(C3)C1)C2 [saxagliptin]
half-life at 5 μM (CYP3A2): 0.58 h | CLint rCYP3A2, reference ([7]; saxagliptin 5 μM, 10 pmol CYP/mL, 1 mM NADPH, 37 °C): 1.99 μL/min/pmol CYP | CLint rCYP3A2, input [7, 11]: 1.99 μL/min/pmol CYP | Renal clearance, rat, input ([8]; rat PBPK model input): 38 mL/min/kg | Renal clearance, rat, reference ([8]; rat): 38 mL/min/kg | AUCinf observed ([1]; saxagliptin, human po 2.5 mg): 49.1 ng·h/mL | Cmax observed ([1]; saxagliptin, human po 2.5 mg): 7.89 ng/mL | t1/2 observed ([1]; saxagliptin, human po 2.5 mg): 7.21 h | Renal clearance, human, input [1, 12]: 1.9 mL/min/kg | Renal clearance, human, reference ([1]; saxagliptin, human): 1.9 mL/min/kg | Specific intestinal permeability, reference ([2]; saxagliptin, rat and human models): 2.73 10^−6 cm/s | CLint hCYP3A5, input (hCYP3A5; human PBPK model input): 0.09 μL/min/pmol CYP | CLint hCYP3A5, reference (hCYP3A5; human): 0.09 μL/min/pmol CYP | pKa (compound type), input ([3]; saxagliptin, base, input of rat and human models): 7.9 (base) | pKa (compound type), reference ([3]; saxagliptin, base, rat and human models): 7.9 (base) | Solubility (ref-pH), input ([3]; saxagliptin, pH 7, input of rat and human models): 17.6 (pH 7) mg/mL | Solubility (ref-pH), reference ([3]; saxagliptin, pH 7, rat and human models): 17.6 (pH 7) mg/mL | Lipophilicity, reference ([3]; saxagliptin, reference value for rat and human PBPK models): −0.35 logD7.4 | Fraction unbound, rat, input [4, 11]: 0.82 | Fraction unbound, rat, reference ([4]; saxagliptin, rat): 0.82 | AUC(0-inf) ([5]; rat, po, 5 mg/kg, AUCinf of saxagliptin, alone, SXG 5 mg/kg alone, mean ± SD): 156 ± 22.9 ng·h/mL | AUC(0-inf) ([5]; rat, po, 5 mg/kg, AUCinf of saxagliptin, co-administered with nicardipine, rat, po, SXG 5 mg/kg + NCD 15 mg/kg, mean ± SD): 408 ± 213 ng·h/mL | CL/F ([5]; rat, po, 5 mg/kg, CL/F of saxagliptin, alone, SXG 5 mg/kg alone, mean ± SD): 542 mL/min/kg | CL/F ([5]; rat, po, 5 mg/kg, CL/F of saxagliptin, co-administered with nicardipine, rat, po, SXG 5 mg/kg + NCD 15 mg/kg, mean ± SD): 238 mL/min/kg | Cmax ([5]; rat, po, 5 mg/kg, Cmax of saxagliptin, alone, SXG 5 mg/kg alone, mean ± SD): 98.5 ± 15.1 ng/mL | Cmax ([5]; rat, po, 5 mg/kg, Cmax of saxagliptin, co-administered with nicardipine, rat, po, SXG 5 mg/kg + NCD 15 mg/kg, mean ± SD): 281 ± 147 ng/mL | Tmax ([5]; rat, po, 5 mg/kg, Tmax of saxagliptin, alone, SXG 5 mg/kg alone, mean ± SD): 0.417 ± 0.129 h | Tmax ([5]; rat, po, 5 mg/kg, Tmax of saxagliptin, co-administered with nicardipine, rat, po, SXG 5 mg/kg + NCD 15 mg/kg, mean ± SD): 0.464 ± 0.094 h | half-life ([5]; rat, po, 5 mg/kg, t1/2 of saxagliptin, alone, SXG 5 mg/kg alone, mean ± SD): 1.82 ± 0.737 h | half-life ([5]; rat, po, 5 mg/kg, t1/2 of saxagliptin, co-administered with nicardipine, rat, po, SXG 5 mg/kg + NCD 15 mg/kg, mean ± SD): 2.97 ± 1.23 h | Cmax ([5]; rat, po, Cmax of saxagliptin, co-administered with nicardipine, rat, po, SXG 5 mg/kg + NCD 15 mg/kg, mean ± SD): 280 ± 147 ng/mL | AUCinf of saxagliptin, alone ([5]; rat, po, SXG 5 mg/kg alone, mean ± SD, listed as SXG): 157 ± 23.1 ng·h/mL | increase of plasma concentration of saxagliptin in vivo ([5]; rats, co-administration with nicardipine): more than 2 fold | Fraction unbound, human, input [6, 12]: 1 | Fraction unbound, human, reference ([6]; saxagliptin, human): 1 | CLint hCYP3A4, input (hCYP3A4; human PBPK model input): 0.38 μL/min/pmol CYP | CLint hCYP3A4, reference (hCYP3A4; human): 0.38 μL/min/pmol CYP
